Measurements from US20060183677A1, “Novel exendin agonist formulations and methods of administration thereof” (priority 2002, published 2006).

What was measured:
[1] = test system: Sprague-Dawley rats; assay: Insulinotropic action during intravenous glucose challenge in rats (Example 5); type: in vivo; conditions: 30 pmol/kg/min i.v.
[2] = test system: humans; conditions: acute treatment; cited from earlier work
[3] = test system: diabetic db/db mice; assay: Glucose lowering in diabetic db/db mice (dose response); type: in vivo
Experimental: C57BLKS/J-m-db/db mice, at least 3 months of age were utilized for the study. The mice were obtained from The Jackson Laboratory and allowed to acclimate for at least one week before use. Mice were housed in groups of ten at 22° C.±1° C. with a 12:12 light:dark cycle, with lights on at 6 a.m. All animals were deprived of food for 2 hours before taking baseline blood samples. Approximately 70 μl of blood was drawn from each mouse via eye puncture, after a light anesthesia with metophane. […] Blood samples were drawn again, using the same procedure, after exactly one hour from the injections, and plasma glucose concentrations were measured. For each animal, the % change in plasma value, from baseline value, was calculated and a dose dependent relationship was evaluated using Graphpad Prizm™ software.

## GLP-1[7-36]NH2
[1]
  60-min glucose AUC: 1096 ± 68 mM·min
[1]; D-glucose […] i.v.
  plasma glucose after glucose injection: 23.7 mM
[1]; n.s. versus saline
  increase of 60-min insulin AUC versus saline-treated rats: 20%
[2]
  acute effect on insulin sensitivity: appears not to immediately alter insulin sensitivity
[3]
  Glucose-lowering ED50: 20.6 µg
